{"source": "patent US20110195997A1", "about": "“Dicarboxamide Derivatives” (priority 2006, published 2011)", "target": "T1, human factor Xa (Homo sapiens, UniProt P00742)", "T1 construct": "Factor Xa is a serine endopeptidase composed of two disulfide-linked subunits; purchased Enzyme Research Laboratories", "T1 sequence (P00742 235-488 limits assumed)": "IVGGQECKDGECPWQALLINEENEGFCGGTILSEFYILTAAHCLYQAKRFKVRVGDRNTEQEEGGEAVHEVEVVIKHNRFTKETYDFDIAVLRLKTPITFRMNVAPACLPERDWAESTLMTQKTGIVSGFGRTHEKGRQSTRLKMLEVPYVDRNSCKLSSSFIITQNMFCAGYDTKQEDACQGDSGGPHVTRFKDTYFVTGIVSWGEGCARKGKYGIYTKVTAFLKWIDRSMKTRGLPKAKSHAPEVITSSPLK", "T1 sequence (P00742 41-179 partner limits assumed)": "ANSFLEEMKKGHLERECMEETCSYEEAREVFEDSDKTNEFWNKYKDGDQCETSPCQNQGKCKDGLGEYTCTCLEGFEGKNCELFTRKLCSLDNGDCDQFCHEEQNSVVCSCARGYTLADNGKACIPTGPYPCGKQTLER", "experiment": "chromogenic peptide substrate assay, inhibition of factor Xa", "format": "biochemical", "settings": "human factor Xa 3 nM, chromogenic substrate S-2222, pH 7.8, room temperature; apparent Ki from IC50 by Cheng-Prusoff", "procedure": "Factor Xa activity was measured spectrophotometrically in microtiter plates in a final volume of 150 μl using the following conditions: Inhibition of human factor Xa (Enzyme Research Laboratories) was tested at an enzyme concentration of 3 nM using the chromogenic substrate S-2222 (Chromogenix AB, Mölndal, Sweden) at […]. The reaction kinetics of the enzyme and the substrate were linear with both time and the enzyme concentration. The inhibitors were dissolved in DMSO and tested at various concentrations up to 100 μM. The inhibitors were diluted using HNPT buffer consisting of HEPES 100 mM, NaCl 140 mM, PEG 6000 0.1% and Tween 80 0.02%, pH 7.8. […] The velocity of the reaction was determined by the autoreader from the slope of the linear regression fit to 7 time points (1 minute). The initial velocity for each inhibitor concentration was determined by the slope of at least 4 time points in the linear phase by a linear regression fit […]. Apparent dissociation constants Ki were calculated according to Cheng and Prusoff [Cheng, Y. C.; Prusoff, W. H. Relationship between the inhibition constant (Ki) and the concentration of the inhibitor that causes 50 percent inhibition (IC50) of an enzyme reaction. Biochem. Pharmacol. 1973, 22, 3099-3108.] based on the IC50 and the respective Km, determined previously (Ki=IC50/(1+S/Km)). […]"}
{"smiles": "O=C(Nc1ccc(-n2ccccc2=O)cc1F)[C@H]1C[C@H]1C(=O)Nc1ccc(Cl)cn1", "note": "(single isomer, unassigned) [Example 1.4 (1S,2R) enantiomer]", "values": [{"measurement": "Ki", "result": 0.003, "unit": "µM"}]}
